Results from patent US20230372318A1, “METHODS FOR TREATING A SUBJECT HAVING MULTIPLE SYSTEM ATROPHY” (Theravance Biopharma R&D IP, LLC, priority 2022, published 2023).

Tested on: subjects with primary autonomic failures (MSA, PD, or PAF) and symptomatic nOH
Experiment: Phase 3 22-week randomized withdrawal study in symptomatic nOH (Example 7)
Type: in vivo, human
Parameters: OHSA composite score, LS Mean / OHSA composite score, Mean / OHSA composite score, Median / OHSA composite score, LS Mean Difference / OHDAS item 1 (standing for a short time) score, Mean / OHDAS item 1 (standing for a short time) score, Median / OHDAS item 1 (standing for a short time) score, LS Mean / OHDAS item 1 (standing for a short time) score, LS Mean Difference: scale not given here
Settings: MSA subjects; for OHSA composite score, LS Mean / OHSA composite score, Mean / OHSA composite score, Median / OHSA composite score, LS Mean Difference: change at week 22, end of 6-week double-blind period; for OHSA composite score, LS Mean Difference / OHDAS item 1 (standing for a short time) score, LS Mean Difference: vs placebo; for OHDAS item 1 (standing for a short time) score, LS Mean / OHDAS item 1 (standing for a short time) score, Mean / OHDAS item 1 (standing for a short time) score, Median / OHDAS item 1 (standing for a short time) score, LS Mean Difference: week 22, end of 6-week double-blind period
Procedure: The study consisted of a 16-week open-label (OL) treatment period with ampreloxetine followed by a 6-week double-blind randomized withdrawal period where subjects were administered either ampreloxetine or placebo.
Eligible subjects were either (i) completers of the study of Example 6 (“Completers Group”), or (ii) symptomatic nOH subjects meeting all applicable study inclusion criteria and none of the applicable exclusion criteria (“De Novo Group”).
A 4-week screening period applied to the De Novo Group only and the Screening visit was conducted in clinic for all De Novo Group subjects.
A total of 203 subjects entered this study (170 subjects from Example 6 (85 from the ampreloxetine group and 85 from the placebo group) and 33 de novo subjects). During the OL period, 55 subjects discontinued treatment. At 16 weeks, 64 subjects were randomized to the ampreloxetine group (6 subjects discontinued the study) and 64 subjects were randomized to the placebo group (3 subjects discontinued the study). A total of 119 subjects completed the study. Of the 128 subjects entering the randomized period, 40 subjects had MSA (31%); 68 subjects had PD (53%); and 20 subjects had PAF (16%) (in each category, the subjects were split equally between ampreloxetine and placebo).
Beginning on Day 2, subjects received a single dose of 10 mg ampreloxetine once daily (QD) and continued thereafter for the 16-week duration of the OL treatment period. Following this 16-week OL treatment period, subjects were randomized to either continue on the active treatment or placebo (“PBO”) for a period of 6 weeks.
Subjects enrolled into the OL period of the study had visits scheduled for Day 15, Day 29, and every 4 weeks thereafter for assessments as outlined in the Schedule of Study Procedures. […] Those subjects not meeting this continuation criterion were discontinued and underwent an end of study visit. The end of study visit was completed within 2 weeks from the date of the last dose.
Following the completion of a total of 16 weeks OL treatment with ampreloxetine (V6), subjects were assessed for randomization in a 1:1 manner. Eligible subjects received 6 weeks of double-blind treatment of ampreloxetine or PBO once daily. Only subjects with OHSA #1 score of ≤7 were eligible for randomization for the double-blind treatment period.
Exploratory assessments included: orthostatic standing test; NMSS; EQ-5D-5L; HADS; and BSFC-s. For subjects with PD, exploratory assessments included: Unified Parkinson's Disease Rating Scale (UPDRS); and Parkinson's Disease Questionaire-8 (PDQ-8). For subjects with MSA, exploratory assessments included: Unified Multiple System Atrophy Rating Scale (UMSARS); and Composite Autonomic Symptom Score-31 (COMPASS-31).
The secondary endpoints included: • (a) Change from baseline in OHSA #1 at Week 6 post randomization (V9, D155); • (b) Change from baseline in OHSA composite score at Week 6 post randomization (V9, D155); • (c) Change from baseline in OHDAS composite score at Week 6 post randomization (V9, D155); • (d) Change from baseline in PGI-S at Week 6 post randomization (V9, D155); • (e) Change from baseline in percentage of time spent in standing position as measured by a wearable device at Week 6 post randomization (V9, D155); and • (f) Change from baseline in average number of steps taken as measured by a wearable device at Week 6 post randomization (V9, D155).

With `Fc1cc(F)c(OCc2ccccc2C2CCNCC2)c(F)c1` [Ampreloxetine, 4-[2-(2,4,6-trifluorophenoxymethyl)phenyl]piperidine] the “OHSA composite score, LS Mean” value (<65 Years) was 0.55, the “OHSA composite score, Mean” value (<65 Years) was 0.8 and the “OHSA composite score, Median” value (<65 Years) was 0.4. For the same molecule, the “OHSA composite score, LS Mean Difference” value (<65 Years) was −1.09, the “OHDAS item 1 (standing for a short time) score, LS Mean” value (<65 Years) was −0.5 and the “OHDAS item 1 (standing for a short time) score, Mean” value (<65 Years) was 0.0. The “OHDAS item 1 (standing for a short time) score, Median” value (<65 Years) was 0.0, the “OHDAS item 1 (standing for a short time) score, LS Mean Difference” value (<65 Years) was −2.9 and the “OHSA composite score, LS Mean” value (>=65 Years) was −0.60. The “OHSA composite score, Mean” value (>=65 Years) was −0.75, the “OHSA composite score, Median” value (>=65 Years) was −0.70 and the “OHSA composite score, LS Mean Difference” value (>=65 Years) was −2.17. The “OHDAS item 1 (standing for a short time) score, LS Mean” value (>=65 Years) was −0.4, the “OHDAS item 1 (standing for a short time) score, Mean” value (>=65 Years) was −0.3 and the “OHDAS item 1 (standing for a short time) score, Median” value (>=65 Years) was 0.0. The “OHDAS item 1 (standing for a short time) score, LS Mean Difference” value (>=65 Years) was −1.0, the “OHSA composite score, LS Mean” value (Female) was 0.2078 and the “OHSA composite score, Mean” value (Female) was 0.23. For the same molecule, the “OHSA composite score, Median” value (Female) was 0.00, the “OHSA composite score, LS Mean Difference” value (Female) was −1.3996 and the “OHDAS item 1 (standing for a short time) score, LS Mean” value (Female) was 0.2. For the same molecule, the “OHDAS item 1 (standing for a short time) score, Mean” value (Female) was 0.3, the “OHDAS item 1 (standing for a short time) score, Median” value (Female) was 0.0 and the “OHDAS item 1 (standing for a short time) score, LS Mean Difference” value (Female) was −1.0. For the same molecule, the “OHSA composite score, LS Mean” value (MSA diagnosis <1.3 years) was 0.73, the “OHSA composite score, Mean” value (MSA diagnosis <1.3 years) was 0.67 and the “OHSA composite score, Median” value (MSA diagnosis <1.3 years) was 0.70. For the same molecule, the “OHSA composite score, LS Mean Difference” value (MSA diagnosis <1.3 years) was −1.24, the “OHDAS item 1 (standing for a short time) score, LS Mean” value (MSA diagnosis <1.3 years) was 0.7 and the “OHDAS item 1 (standing for a short time) score, Mean” value (MSA diagnosis <1.3 years) was 0.1. The “OHDAS item 1 (standing for a short time) score, Median” value (MSA diagnosis <1.3 years) was 0.0, the “OHDAS item 1 (standing for a short time) score, LS Mean Difference” value (MSA diagnosis <1.3 years) was −2.7 and the “OHSA composite score, LS Mean” value (MSA diagnosis >=1.3 years) was −0.67. For the same molecule, the “OHSA composite score, Mean” value (MSA diagnosis >=1.3 years) was −0.64, the “OHSA composite score, Median” value (MSA diagnosis >=1.3 years) was −0.10 and the “OHSA composite score, LS Mean Difference” value (MSA diagnosis >=1.3 years) was −1.78. The “OHDAS item 1 (standing for a short time) score, LS Mean” value (MSA diagnosis >=1.3 years) was −0.6, the “OHDAS item 1 (standing for a short time) score, Mean” value (MSA diagnosis >=1.3 years) was −0.4 and the “OHDAS item 1 (standing for a short time) score, Median” value (MSA diagnosis >=1.3 years) was 0.0. The “OHDAS item 1 (standing for a short time) score, LS Mean Difference” value (MSA diagnosis >=1.3 years) was −0.7, the “OHSA composite score, LS Mean” value (MSA-C) was 1.10 and the “OHSA composite score, Mean” value (MSA-C) was 0.76. For the same molecule, the “OHSA composite score, Median” value (MSA-C) was 0.50, the “OHSA composite score, LS Mean Difference” value (MSA-C) was −0.68 and the “OHDAS item 1 (standing for a short time) score, LS Mean” value (MSA-C) was 0.9. For the same molecule, the “OHDAS item 1 (standing for a short time) score, Mean” value (MSA-C) was 0.7, the “OHDAS item 1 (standing for a short time) score, Median” value (MSA-C) was 0.0 and the “OHDAS item 1 (standing for a short time) score, LS Mean Difference” value (MSA-C) was −1.0. The “OHSA composite score, LS Mean” value (MSA-P) was −0.50, the “OHSA composite score, Mean” value (MSA-P) was −0.39 and the “OHSA composite score, Median” value (MSA-P) was 0.05. The “OHSA composite score, LS Mean Difference” value (MSA-P) was −1.72, the “OHDAS item 1 (standing for a short time) score, LS Mean” value (MSA-P) was −1.2 and the “OHDAS item 1 (standing for a short time) score, Mean” value (MSA-P) was −0.7. The “OHDAS item 1 (standing for a short time) score, Median” value (MSA-P) was 0.0, the “OHDAS item 1 (standing for a short time) score, LS Mean Difference” value (MSA-P) was −2.7 and the “OHSA composite score, LS Mean” value (Male) was −0.3923. The “OHSA composite score, Mean” value (Male) was −0.46, the “OHSA composite score, Median” value (Male) was 0.20 and the “OHSA composite score, LS Mean Difference” value (Male) was −1.8762. The “OHDAS item 1 (standing for a short time) score, LS Mean” value (Male) was −1.2, the “OHDAS item 1 (standing for a short time) score, Mean” value (Male) was −0.8 and the “OHDAS item 1 (standing for a short time) score, Median” value (Male) was 0.0. The “OHDAS item 1 (standing for a short time) score, LS Mean Difference” value (Male) was −2.8, the “OHSA composite score, Mean” value (Overall) was −0.05 and the “OHSA composite score, Median” value (Overall) was 0.05. The “OHSA composite score, LS Mean” value (Overall, placebo 1.54, p=0.0056) was −0.03, the “OHSA composite score, LS Mean Difference” value (Overall) was −1.57 and the “OHDAS item 1 (standing for a short time) score, LS Mean” value (Overall) was −0.4. The “OHDAS item 1 (standing for a short time) score, Mean” value (Overall) was −0.2, the “OHDAS item 1 (standing for a short time) score, Median” value (Overall) was 0.0 and the “OHDAS item 1 (standing for a short time) score, LS Mean Difference” value (Overall) was −2.0. For the same molecule, the “OHSA composite score, LS Mean” value (Pre treatment baseline OHSA1 <7) was −0.22.
